We go through 22 molecules from PubChem BioAssay (NCI).

Common to all, as to test: DTP human tumour cell line panel, 48 h
Assay [1] deals with NCI/ADR-RES ovarian.
For assay [2], the system named is MALME-3M melanoma.
In assay [3] the test system is 786-0 renal.
Assay [4] relates to SF-539 CNS.
Assay [5] relates to OVCAR-8 ovarian.
Assay [6] concerns SF-295 CNS.
For assay [7], the system named is ACHN renal.
The test system of assay [8] is HCT-116 colon.
In assay [9] the test system is OVCAR-4 ovarian.
Assay [10] deals with SK-MEL-28 melanoma.
For assay [11], the system named is SN12C renal.
The subject of assay [12] is DU-145 prostate.
Assay [13] deals with SK-MEL-2 melanoma.

The structures appear in SMILES notation. Where “and” joins values, the source holds several entries; their conditions need not be identical. Equal entries are not always repeated.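 Compound exposure: 48 hours, 5 concentrations, 96-well plates. GI50 is the concentration that inhibits growth by half. TGI denotes the concentration required for complete inhibition of growth.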 Where a SMILES comes first, the peptide text is derived from it. [ ]: non-standard residue; d: D form. The star is where a group is joined. X28 = COC1=CC(=O)N(C(=O)[C@@H](O*)C(C)C)[C@H]1Cc1ccccc1; NMeL = CN[C@@H](CC(C)C)C(=O)O; Cbz = O=C(OCc1ccccc1)*

By TGI is commonly meant the concentration at which net growth stops. `COC1=CC(=O)N(C(=O)[C@@H](OC(=O)[C@@H]2CCCN2C(=O)[C@@H]2CCCN2C(=O)[C@H](CC(C)C)N(C)C(=O)[C@@H](NC(=O)[C@@H](NC(=O)OCc2ccccc2)C(C)C)C(C)C)C(C)C)[C@H]1Cc1ccccc1` (Cbz-VV[NMeL]PP-X28): the TGI in assay [1] is greater than 100 µM; in assay [2] it was greater than 100 µM; in [3], greater than 100 µM; in assay [4], 43.8 µM; in assay [5] it was greater than 100 µM; in assay [6] it was greater than 100 µM. Also, the TGI in assay [7], in [8], in assay [9], in assay [10], in [11] and in assay [12] was greater than 100 µM throughout. The molecule further yielded a TGI in assay [13] of 28.6 µM.
As for `CCN(CC)CCNC(=O)c1cc2cc(NC(=O)c3cc4cc(NC(=O)c5cc6cc([N+](=O)[O-])ccc6[nH]5)ccc4[nH]3)ccc2[nH]1`, the concentration for total growth inhibition (TGI) in [1], in assay [2], in assay [3], in [5], in assay [6] and in assay [7] was greater than 100 µM each time. In addition, the concentration for total growth inhibition (TGI) in [9], in [10], in [11], in assay [12] and in [13] was greater than 100 µM each time.
Consider `C/C=C/COc1cc(NC(=S)c2ccoc2C)ccc1OC`, for which the total growth inhibition concentration (TGI) in assay [1], in [2], in assay [3], in assay [4], in [5] and in [6] was greater than 100 µM in each case. Further, the TGI in assay [8], in [9], in assay [10], in assay [11], in assay [12] and in assay [13] was greater than 100 µM in each case.
With `CCOC(=O)c1ccc2c(=O)n3c(C(=O)OCC)ccc3c(=O)n12`, the TGI in assay [1], in assay [2], in [3], in assay [5], in [6] and in assay [7] was greater than 100 µM throughout. Further, the TGI in assay [8], in assay [9], in assay [10], in [11], in [12] and in assay [13] was greater than 100 µM throughout.
For `CCOC(=O)C1CCCC1S(=O)(=O)c1ccc(C)cc1` (stereo not drawn), the TGI in assay [1], in assay [2], in assay [3], in assay [5], in assay [6] and in assay [7] was greater than 100 µM in each case. Also, the TGI in assay [8], in assay [9], in assay [10], in [11] and in assay [12] was greater than 100 µM throughout.
Turning to `N#CCCCCC12C3C(=O)N(c4ccccc4)C(=O)C3ON1O[C@@H]1C(=O)N(c3ccccc3)C(=O)[C@@H]12` (stereo partly drawn), the total growth inhibition concentration (TGI) in assay [1], in assay [2], in assay [3], in assay [4], in [5] and in assay [6] was greater than 100 µM each time. Besides, the TGI in [7], in assay [9], in [10], in assay [11] and in assay [12] was greater than 100 µM in each case.
`CN(C)Cc1cc(C(=O)/C=C/c2c(F)cccc2Cl)cc(CN(C)C)c1O`: the total growth inhibition concentration (TGI) in [1] is 75.7 µM; in assay [2] it was 25.7 µM; in assay [3], 19.5 µM; in [5], 41.2 µM; in assay [6], 25.4 µM; in [7] it was 15.4 µM. For the same molecule, the total growth inhibition concentration (TGI) in [8] came out at 16.2 µM; in [9], 31 µM; in [10], 31.9 µM; in [11], 17.2 µM; in assay [12], 21.3 µM; in [13], 35.5 µM.
With `CCCCCCCCC[C@@H]1C[C@@H]2CCC3C(C(=O)OCCCCNC(=O)OCc4ccccc4)=C(C)NC(=N1)N32` (stereo partly drawn), the TGI is 7 µM in assay [1]; 3.2 µM in assay [3]; 14.4 µM in [4]; 8.7 µM in assay [5]; 11.2 µM in [6]; 12.2 µM in assay [7]. In addition, the total growth inhibition concentration (TGI) is 10 µM in [8]; 21.3 µM in assay [9]; 13.5 µM in [10]; 10.7 µM in [11]; 21 µM in assay [12]; 4.84 µM in [13].
With `Cc1cc(O)c(/C=N/C(=O)NN)c(=O)o1`, the TGI in assay [1], in assay [3], in assay [4], in assay [5], in [6] and in assay [7] was greater than 100 µM in each case. The TGI in assay [8], in [9], in assay [10], in assay [11], in [12] and in assay [13] was greater than 100 µM throughout.
`O=C(O)C1C2CCC(C2)C1c1ccccc1` (stereo not drawn): the TGI in assay [1], in assay [2], in [3], in assay [4], in assay [5] and in [6] was greater than 100 µM throughout. In addition, the TGI in [7], in assay [8], in assay [10], in assay [11], in assay [12] and in assay [13] was greater than 100 µM in each case.
As for `CC(C)(CO)NC(=O)c1cccc(C(=O)NC(C)(C)CO)c1Br`, the TGI in assay [1], in assay [2], in [3], in assay [4], in [5] and in assay [7] was greater than 100 µM throughout. Moreover, the TGI in assay [8], in assay [9], in assay [10], in assay [12] and in assay [13] was greater than 100 µM each time.
For `O=C(O)C1Cc2ccccc2OC1=O` (stereo not drawn), the TGI in [1], in [2], in assay [3], in [4], in [5] and in assay [6] was greater than 100 µM throughout. For the same molecule, the total growth inhibition concentration (TGI) in assay [7], in assay [8], in [10], in assay [11], in [12] and in [13] was greater than 100 µM in each case.
In the case of `CCOC(=O)/C(=C\NC#N)c1nc2ccccc2[nH]1`, the total growth inhibition concentration (TGI) in assay [1], in assay [2], in assay [3], in [4], in assay [5] and in [6] was greater than 100 µM each time. The TGI in [7], in [8], in assay [9], in assay [10], in [11] and in [12] was greater than 100 µM throughout.
Regarding `CC(=O)C1C(=O)C(=O)N(c2ccc([N+](=O)[O-])cc2Cl)C1=O` (stereo not drawn), the total growth inhibition concentration (TGI) in assay [1], in [3], in assay [4], in [5], in assay [6] and in [7] was greater than 100 µM throughout. Further, the total growth inhibition concentration (TGI) in assay [8], in [9], in [10], in assay [11], in [12] and in assay [13] was greater than 100 µM each time.
Regarding `COC(=O)C(Cc1ccccc1)NC(=O)C(CCCN=C(N)N)NC(=O)OCc1ccccc1` (stereo not drawn), the total growth inhibition concentration (TGI) in assay [1], in assay [2], in assay [3], in assay [5], in assay [6] and in [7] was greater than 100 µM each time. For the same molecule, the TGI in assay [8], in assay [9], in [10], in [11] and in assay [12] was greater than 100 µM in each case.
Broadly, the GI50 is the concentration that inhibits growth by half. For the molecule `COc1ccc(-c2c(C(C)=O)c(-c3ccccc3)n(C3OC(COC(C)=O)C(OC(C)=O)C(OC(C)=O)C3OC(C)=O)c(=S)c2C#N)cc1O` (stereo not drawn), the TGI in [1] is greater than 100 µM; in assay [2], 40.5 µM and 55.9 µM; in assay [3] it was greater than 100 µM; in assay [6], greater than 100 µM; in assay [7], greater than 100 µM; in assay [8], greater than 100 µM. Moreover, the TGI in [9] is 98.8 µM and > 100 µM; in assay [10], greater than 100 µM; in [11], greater than 100 µM; in [12], 94.3 µM and > 100 µM. In addition, in assay [10], the GI50 is 27.2 µM and 65.9 µM.
For the molecule `COc1ccc(CCN2CCOCC2)cc1`, the TGI in assay [1], in [2], in assay [3], in assay [4], in [6] and in assay [7] was greater than 100 µM each time. Further, the TGI in [8], in [10], in assay [11], in assay [12] and in [13] was greater than 100 µM in each case.
For the molecule `CCCCCCCCCCOC1C(C(C)OCCCN(C)C)OC2OC3(CCCCC3)OC21` (stereo not drawn), the total growth inhibition concentration (TGI) in assay [1] was 32.2 µM; in assay [2], 29.5 µM; in assay [3], 30.9 µM; in [5] it was 34.6 µM; in [6] it was 32.7 µM; in assay [7], 31.4 µM. For the same molecule, the TGI in assay [8] worked out at 26.4 µM; in assay [9] it was 27.5 µM; in [10], 25.5 µM; in assay [11] it was 30.3 µM; in assay [12], 31.2 µM; in assay [13] it was 30.4 µM.
Take `CC(=O)O[C@@H]1CC2[C@@H](CCC3Cc4nc5c(nc4C[C@@]32C)CC2CC[C@@H]3C(CC[C@@]4(C)C3CC[C@@H]4C(C)CCCC(C)C)[C@@]2(C)C5)C2C[C@@H]3OC4(CCC(C)CO4)C(C)[C@@H]3[C@]21C` (stereo partly drawn): the TGI in [1], in [2], in [3], in [4], in assay [5] and in assay [6] was greater than 100 µM throughout. Moreover, the TGI in assay [7], in assay [8], in assay [9], in assay [10], in [11] and in [12] was greater than 100 µM in each case.
Consider `CNC(=O)C(NC(=O)[C@H](CC(C)C)NC(=O)[C@@H](S)CCN1C(=O)N(C)C(C)(C)C1=O)C(C)(C)C` (stereo partly drawn), for which the TGI in [1], in assay [2], in assay [3], in assay [5], in [6] and in assay [7] was greater than 100 µM throughout. The TGI in [8], in assay [9], in assay [10], in [11], in assay [12] and in [13] was greater than 100 µM in each case.
In the case of `CCC(C)N1CN(c2ccccc2)C2(CCN(CCCC(=O)c3ccc(F)cc3)CC2)C1=O` (stereo not drawn), the TGI in assay [1] was greater than 100 µM; in [2], 27.8 µM; in assay [3], greater than 100 µM; in [4] it was 21 µM; in [6], 15.8 µM; in assay [7], 9.73 µM. The TGI in assay [8] was 3.16 µM; in [9], 16.2 µM; in assay [10] it was 32.1 µM; in assay [11], 14.3 µM; in assay [12] it was 13.4 µM; in [13] it was 28.7 µM.
`CCOc1ccc(-n2c(=O)n3c(Nc4ccc(Cl)cc4)nc4c(c(=O)n(C)c(=O)n4C)n3c2=O)cc1`: the concentration for total growth inhibition (TGI) in [1], in [3], in assay [4], in [5], in assay [6] and in assay [7] was greater than 100 µM throughout. Also, the total growth inhibition concentration (TGI) in [8] is 40.2 µM; in assay [9], greater than 100 µM; in assay [10], 65.3 µM; in assay [11] it was 74.6 µM; in assay [12], greater than 100 µM; in assay [13], greater than 100 µM.
